Results on 4 compounds are retold here after publication PMC6941110, “Mutation of Aspartate 238 in FAD Synthase Isoform 6 Increases the Specific Activity by Weakening the FAD Binding” (International Journal of Molecular Sciences, 2019).

As usually defined, the Kd is a measure of binding affinity in units of concentration. What is called koff is a measure of how fast the partners let go of each other. As a reminder, the kon is the second-order rate constant of association.

Structures are written as SMILES. Like-named read-outs stand apart in the source and are kept apart here.

Assay [1] deals with T1, hFADS6 (human FAD synthase isoform 6) (Homo sapiens, UniProt Q8NFF5).
T1 construct: gene FLAD1; 320-residue isoform 6, FADSy domain only, lacks N-terminal FADHy domain; monomer
T1 sequence (Q8NFF5 268-587): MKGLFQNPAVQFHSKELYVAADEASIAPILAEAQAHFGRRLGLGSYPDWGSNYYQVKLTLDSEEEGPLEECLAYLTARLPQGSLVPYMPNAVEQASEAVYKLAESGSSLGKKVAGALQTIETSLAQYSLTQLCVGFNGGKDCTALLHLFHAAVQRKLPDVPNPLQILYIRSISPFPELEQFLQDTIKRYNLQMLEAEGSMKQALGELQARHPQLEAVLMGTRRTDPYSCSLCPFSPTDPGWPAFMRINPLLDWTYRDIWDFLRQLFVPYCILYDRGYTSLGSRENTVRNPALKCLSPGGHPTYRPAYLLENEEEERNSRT
Put plainly: stopped-flow flavin fluorescence, koff/kon. Format: binding.

Assay [2] deals with T2, hFADS6 (human FAD synthase isoform 6) (Homo sapiens, UniProt Q8NFF5, D505A).
T2 construct: gene FLAD1; 320-residue isoform 6, FADSy domain only, lacks N-terminal FADHy domain; monomer
T2 sequence (Q8NFF5 268-587 D505A): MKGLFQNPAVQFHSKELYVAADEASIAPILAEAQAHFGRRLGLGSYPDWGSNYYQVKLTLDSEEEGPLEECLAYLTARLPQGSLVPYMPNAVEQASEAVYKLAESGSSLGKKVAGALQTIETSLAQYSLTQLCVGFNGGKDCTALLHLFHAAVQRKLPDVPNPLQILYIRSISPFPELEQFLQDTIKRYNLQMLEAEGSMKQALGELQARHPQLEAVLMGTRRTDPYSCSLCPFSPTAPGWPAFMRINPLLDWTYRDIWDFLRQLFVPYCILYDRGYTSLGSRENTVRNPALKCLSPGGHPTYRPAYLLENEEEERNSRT
Put plainly: biochemical. Also noted: Stopped-flow flavin fluorescence, FAD binding with 250 uM PPi; kon/koff from kobs1 versus flavin concentration, 25 °C, pH 7.0. To be noted: error at least 30%, with 250 uM PPi. The method, then:
(§1) Pre-steady-state kinetic experiments were performed using stopped-flow spectroscopy on an Applied Photophysics SX17.MV spectrophotometer using the Pro-Data SX software (Applied Photophysics Ltd. Leatherhead, Surrey, UK). The fluorescence of flavins was measured in a continuous assay with an excitation wavelength of 445 nm, while the emission was recovered using a >530 nm cut-off filter and the [compound left out] was set to 350 V. Then, 100 nM hFADS6 samples were mixed with samples that contained increasing concentrations of FMN or FAD (which varied in the range 0.025–1 μM), in the absence and in the presence of saturating concentrations of their respective co-substrates ATP or PPi (250 µM). All the indicated concentrations are final ones in the stopped-flow observation cell. Measurements were carried out at 25 °C in 50 mM HEPES/NaOH, 10 mM MgCl2, pH 7.0, 5 mM β-mercaptoethanol. At least three reproducible kinetic traces of changes in fluorescence were recorded for each condition and fitted to exponential equations (usually one or two exponentials were used) (2) y=∑Aie^−kobs,it where Ai and kobs,i represent the amplitude and the observed rate constant, respectively, for each of the processes (i) that contribute to the overall time-dependent fluorescence change for each experimental condition. […] When similarly evaluating the reverse reaction, kinetic traces for both WT and the D238A mutant show an initial fluorescence exponential decay of small amplitude that is followed by a linear increase of the signal (Figure 8b). We again deduce the kinetics for binding of FAD from the exponential decay, while rates for the subsequent linear fluorescence increase relate well to steady-state kinetic parameters for the transformation of FAD into FMN. Although the small amplitudes for FAD binding make it difficult to accurately determine kobs values, both parameters show a dependence on the substrate concentration (Supplementary Figure S3a,b). […] Normalized kinetic traces for the flavin fluorescence evolution upon mixing the protein with substrates for the (a) forward (ATP + FMN) and (b) reverse (PPi + FAD) reactions. Traces for WT and D238A hFADS are shown in colored grey and red scales as a function of the flavin given concentrations. Normalized signals regarding the fluorescence of the forward reaction at maximum FMN concentration are shown. Kinetic traces were obtained at 25 °C in mixtures containing 100 nM of protein and 250 µM of either ATP (a) or PPi (b) in 50 mM HEPES/NaOH, 10 mM MgCl2, pH 7.0, 5 mM β-mercaptoethanol. All concentrations are final after mixing.

Assay [3] concerns the target T1, hFADS6 (human FAD synthase isoform 6). Put plainly: biochemical. Further details: Stopped-flow flavin fluorescence, FAD binding with 250 uM PPi; kon/koff from kobs1 versus flavin concentration, 25 °C, pH 7.0. As to conditions: with 250 uM PPi. The method, then:
as §1

Assay [4] deals with T2, hFADS6 (human FAD synthase isoform 6). Put plainly: stopped-flow flavin fluorescence, koff/kon. Format: binding. The text has this: stopped-flow flavin fluorescence, koff/kon on hFADS6 (human FAD synthase isoform 6) | obtained values are again indicative of the mutant binding FAD slower and weaker than the WT
Assay [5] shares this target. Put plainly: biochemical. Further details: Stopped-flow flavin fluorescence, FMN binding with 250 uM ATP; kon/koff from kobs1 versus flavin concentration, 25 °C, pH 7.0. As to conditions: error at least 30%, with 250 uM ATP. The method, then:
(§2) Pre-steady-state kinetic experiments were performed using stopped-flow spectroscopy on an Applied Photophysics SX17.MV spectrophotometer using the Pro-Data SX software (Applied Photophysics Ltd. Leatherhead, Surrey, UK). The fluorescence of flavins was measured in a continuous assay with an excitation wavelength of 445 nm, while the emission was recovered using a >530 nm cut-off filter and the [compound left out] was set to 350 V. Then, 100 nM hFADS6 samples were mixed with samples that contained increasing concentrations of FMN or FAD (which varied in the range 0.025–1 μM), in the absence and in the presence of saturating concentrations of their respective co-substrates ATP or PPi (250 µM). All the indicated concentrations are final ones in the stopped-flow observation cell. Measurements were carried out at 25 °C in 50 mM HEPES/NaOH, 10 mM MgCl2, pH 7.0, 5 mM β-mercaptoethanol. At least three reproducible kinetic traces of changes in fluorescence were recorded for each condition and fitted to exponential equations (usually one or two exponentials were used) (2) y=∑Aie^−kobs,it where Ai and kobs,i represent the amplitude and the observed rate constant, respectively, for each of the processes (i) that contribute to the overall time-dependent fluorescence change for each experimental condition. […] In mixtures containing substrates of the forward reaction, ATP and FMN, the relevant decrease in the flavin fluorescence is indicative of internalization of the isoalloxazine or FMN transformation into FAD. These observations also agree with ATP binding to the protein prior to FMN in the bi-bi ordered kinetic mechanism reported for hFADSs. Nonetheless, features for this fluorescence decay also differ between WT and D238A hFADSs (Figure 8a). […] The first exponential decay has observed rate constants (kobs1) in the low seconds range which depend linearly on the FMN concentration, while its amplitude is concentration independent (Supplementary Figure S3a,b). kobs2 for the second exponential decay indicate a slower process nearly FMN concentration independent, with amplitude increasing with FMN concentration (Supplementary Figure S3a,b). […] The derived Kd^FMN, 0.094 ± 0.004 µM, agrees well with the above derived Km^FMN for WT hFADS6. […] Finally, the continuous and linear flavin fluorescence decay established after the exponential processes fits well with the settlement of the catalytic steady-state transformation of FMN into FAD, showing, in addition, rates in the ranges of Vmax and kcat. […] Nonetheless, fluorescence decay related to FMN transformation into FAD follows similar traits to the WT ones (Fig  Figure 8 Dissection of the kinetics of the substrates binding process from the catalytic reaction by stopped-flow spectrophotometry. Normalized kinetic traces for the flavin fluorescence evolution upon mixing the protein with substrates for the (a) forward (ATP + FMN) and (b) reverse (PPi + FAD) reactions. Traces for WT and D238A hFADS are shown in colored grey and red scales as a function of the flavin given concentrations. Normalized signals regarding the fluorescence of the forward reaction at maximum FMN concentration are shown. Kinetic traces were obtained at 25 °C in mixtures containing 100 nM of protein and 250 µM of either ATP (a) or PPi (b) in 50 mM HEPES/NaOH, 10 mM MgCl2, pH 7.0, 5 mM β-mercaptoethanol. All concentrations are final after mixing.

The target of assay [6] is T1, hFADS6 (human FAD synthase isoform 6). The experiment in a line: biochemical. Also noted: Stopped-flow flavin fluorescence, FMN binding with 250 uM ATP; kon/koff from kobs1 versus flavin concentration, 25 °C, pH 7.0. To be noted: with 250 uM ATP. The protocol:
as §2

In assay [7] the target is T2, hFADS6 (human FAD synthase isoform 6). The experiment in a line: inhibition of FADS activity. Format: biochemical. As to conditions: inhibitor.

`Cc1cc2nc3c(=O)[nH]c(=O)nc-3n(C[C@H](O)[C@H](O)[C@H](O)COP(=O)(O)OP(=O)(O)OC[C@H]3O[C@@H](n4cnc5c(N)ncnc54)[C@H](O)[C@@H]3O)c2cc1C` [FAD]: the Kd in assay [1] (read-out: Kd) is 180 ± 40 nM; in assay [4] it was over 300 nM. Besides, the koff in assay [2] (read-out: koff (FAD binding)) is 0.35 s⁻¹; in assay [3] (read-out: koff (FAD binding)), 0.81 ± 0.05 s⁻¹. Also, the results for the kon in assay [2] (read-out: kon (FAD binding)) and in assay [3] (read-out: kon (FAD binding)) were 1.5e+06 M⁻¹ s⁻¹ and 4.5e+06 ± 600000 M⁻¹ s⁻¹, respectively.
Regarding `Cc1cc2nc3c(=O)[nH]c(=O)nc-3n(C[C@H](O)[C@H](O)[C@H](O)COP(=O)(O)O)c2cc1C` [FMN], the Kd in assay [1] (read-out: Kd^FMN) was 94 ± 4 nM; in assay [5] (koff/kon, read-out: Kd FMN), over 180 nM. Moreover, the koff in assay [5] (read-out: koff (FMN binding)) was 0.09 s⁻¹; in assay [6] (read-out: koff (FMN binding)) it was 0.32 ± 0.01 s⁻¹. Also, the kon in assay [5] (read-out: kon (FMN binding)) worked out at 550000 M⁻¹ s⁻¹; in assay [6] (read-out: kon (FMN binding)), 3.4e+06 ± 100000 M⁻¹ s⁻¹.
For the compound `Nc1nc2c(ncn2[C@@H]2O[C@H](COP(=O)(O)OP(=O)(O)OP(=O)(O)O)[C@@H](O)[C@H]2O)c(=O)[nH]1` [GTP], the “inhibition of FADS activity” value in assay [7] was “The D238A-hFADS6 was inhibited by GTP and by NADH”.
Consider `NC(=O)C1=CN([C@@H]2O[C@H](COP(=O)(O)OP(=O)(O)OC[C@H]3O[C@@H](n4cnc5c(N)ncnc54)[C@H](O)[C@@H]3O)[C@@H](O)[C@H]2O)C=CC1` [NADH], for which the “inhibition of FADS activity” value in assay [7] is “The D238A-hFADS6 was inhibited by GTP and by NADH”.
